What was measured:
Type in all cases: in vivo, human
[1] = test system: ApoA; test: Clinical trial: serum ApoA of IHD patients under therapy; settings: patient serum
Excerpt: (§1) A group of […] patients were selected for therapy to alter lipid metabolism relative to a control group of 20 ‘matched’patients who were not treated (Patient Control Group).
(§2) The therapy group comprised 23 male and 7 female patients with an average age of 55±1.1 years. The patient control group was comprised of 20 patients with IHD, of which 15 were male and 5 were female with an average age of 53±1.2 years. Each patient gave written consent for his/her participation in the trial.
(§3) All patients had angina of II-III class of Canadian Cardiological Society classification.
(§4) Apart from the degree of generalization or severity of atherosclerosis, all groups were matched not only in age, gender and risk factors but also in medication, nitrates, β-blockers, angiotensin-converting enzyme inhibitors etc.
(§5) Each therapy was administered for 8 weeks. The blood of the patients of all four groups was tested every two weeks.

[2] = test system: ApoB; test: Clinical trial: serum Apo-B (immuno-turbometric assay); settings: patient serum
Excerpt: as §1, §2
(§6) All patients had angina of II-III class of Canadian Cardiological Society classification. […] IHD diagnosis for the other 15 patients with a recent history of unstable angina in the first group and 10 in the patient control group was confirmed by coronary angiography, which detected 70% or more of arterial stenosis.
as §4, §5
(§7) The level of LDL was estimated in two independent parameters: LDL-cholesterol measured by combination of enzymatic and immunologic assays, and Apo-B measured by immuno-turbometric assay. These assays were performed using commercially available kits which include goat anti-human apo-B polyclonals (LDL-Direct™, Randox Labs Ltd UK, EZ LDL™ Cat No-358-A, Sigma UK).

[3] = test system: LDL cholesterol; test: Clinical trial: serum LDL-cholesterol (enzymatic and immunologic assays); settings: patient serum
Excerpt: as §1, §2, §3, §4, §5, §7

[4] = test system: Total cholesterol; test: Clinical trial: serum total cholesterol of IHD patients under therapy; settings: patient serum; for cholesterol lowering effect (in words): therapy administered for 8 weeks
Excerpt: as §1, §2, §6, §4, §5

[5] = test system: Triglycerides; test: Clinical trial: serum triglycerides of IHD patients under therapy; settings: patient serum
Excerpt: as §1, §2, §3, §4, §5

Structure (SMILES): CC(=O)Oc1ccccc1C(=O)O [Group D, acetylsalicylic acid]
- ApoA ([1]; 1 month after treatment): 184 mg/dL
- ApoA ([1]; 2 months after treatment): 166 mg/dL
- ApoA (% of before-treatment value) ([1]; 2 months after treatment): 106%
- ApoA ([1]; 3 months after treatment): 179 mg/dL
- ApoA ([1]; Treatment 2 weeks): 157 mg/dL
- ApoA (% of before-treatment value) ([1]; Treatment 2 weeks): 99%
- ApoA ([1]; Treatment 4 weeks): 151 mg/dL
- ApoA (% of before-treatment value) ([1]; Treatment 4 weeks): 96%
- ApoB ([2]; 1 month after treatment): 131 mg/dL
- ApoB (% of before-treatment value) ([2]; 1 month after treatment): 106%
- ApoB ([2]; 2 months after treatment): 142 mg/dL
- ApoB (% of before-treatment value) ([2]; 2 months after treatment): 114%
- ApoB ([2]; 3 months after treatment): 111 mg/dL
- ApoB (% of before-treatment value) ([2]; 3 months after treatment): 90%
- ApoB ([2]; Treatment 2 weeks): 137 mg/dL
- ApoB (% of before-treatment value) ([2]; Treatment 2 weeks): 110%
- ApoB ([2]; Treatment 4 weeks): 113 mg/dL
- ApoB (% of before-treatment value) ([2]; Treatment 4 weeks): 91%
- LDL cholesterol ([3]; 1 month after treatment): 44 mg/dL
- LDL cholesterol ([3]; 2 months after treatment): 38 mg/dL
- LDL cholesterol (% of before-treatment value) ([3]; 2 months after treatment): 103%
- LDL cholesterol ([3]; 3 months after treatment): 43 mg/dL
- LDL cholesterol ([3]; Treatment 2 weeks): 41 mg/dL
- LDL cholesterol ([3]; Treatment 4 weeks): 41 mg/dL
- Total cholesterol ([4]; 1 month after treatment): 221 mg/dL
- Total cholesterol (% of before-treatment value) ([4]; 1 month after treatment): 87%
- Total cholesterol ([4]; 2 months after treatment): 223 mg/dL
- Total cholesterol (% of before-treatment value) ([4]; 2 months after treatment): 88%
- Total cholesterol ([4]; 3 months after treatment): 234 mg/dL
- Total cholesterol (% of before-treatment value) ([4]; 3 months after treatment): 92%
- Total cholesterol ([4]; Treatment 2 weeks): 233 mg/dL
- Total cholesterol (% of before-treatment value) ([4]; Treatment 2 weeks): 92%
- Total cholesterol ([4]; Treatment 4 weeks): 210 mg/dL
- Total cholesterol (% of before-treatment value) ([4]; Treatment 4 weeks): 83%
- cholesterol lowering effect (in words) [4]: no cholesterol lowering effect
- Triglycerides ([5]; 1 month after treatment): 146 mg/dL
- Triglycerides (% of before-treatment value) ([5]; 1 month after treatment): 126%
- Triglycerides ([5]; 2 months after treatment): 128 mg/dL
- Triglycerides ([5]; 3 months after treatment): 134 mg/dL
- Triglycerides ([5]; Treatment 2 weeks): 152 mg/dL
- Triglycerides (% of before-treatment value) ([5]; Treatment 2 weeks): 131%
- Triglycerides ([5]; Treatment 4 weeks): 111 mg/dL
- Triglycerides (% of before-treatment value) ([5]; Treatment 4 weeks): 96%

Structure (SMILES): CC[C@H]1OC(=O)[C@H](C)[C@@H](O[C@H]2C[C@@](C)(OC)[C@@H](O)[C@H](C)O2)[C@H](C)[C@@H](O[C@@H]2O[C@H](C)C[C@H](N(C)C)[C@H]2O)[C@](C)(O)C[C@@H](C)CN(C)[C@H](C)[C@@H](O)[C@]1(C)O [Group A, azithromycin]
- ApoA ([1]; 1 month after treatment): 145 mg/dL
- ApoA (% of before-treatment value) ([1]; 1 month after treatment): 90%
- ApoA ([1]; 2 months after treatment): 162 mg/dL
- ApoA (% of before-treatment value) ([1]; 2 months after treatment): 101%
- ApoA ([1]; 3 months after treatment): 161 mg/dL
- ApoA (% of before-treatment value) ([1]; 3 months after treatment): 100%
- ApoA ([1]; Treatment 4 weeks): 142 mg/dL
- ApoA (% of before-treatment value) ([1]; Treatment 4 weeks): 88%
- ApoA ([1]; Treatment 6 weeks): 143 mg/dL
- ApoA (% of before-treatment value) ([1]; Treatment 6 weeks): 89%
- ApoA ([1]; Treatment 8 weeks): 141 mg/dL
- ApoA (% of before-treatment value) ([1]; Treatment 8 weeks): 88%
- ApoB ([2]; 1 month after treatment): 115 mg/dL
- ApoB (% of before-treatment value) ([2]; 1 month after treatment): 92%
- ApoB ([2]; 2 months after treatment): 133 mg/dL
- ApoB (% of before-treatment value) ([2]; 2 months after treatment): 106%
- ApoB ([2]; 3 months after treatment): 131 mg/dL
- ApoB (% of before-treatment value) ([2]; 3 months after treatment): 105%
- ApoB ([2]; Treatment 4 weeks): 109 mg/dL
- ApoB (% of before-treatment value) ([2]; Treatment 4 weeks): 87%
- ApoB ([2]; Treatment 6 weeks): 110 mg/dL
- ApoB (% of before-treatment value) ([2]; Treatment 6 weeks): 88%
- ApoB ([2]; Treatment 8 weeks): 113 mg/dL
- ApoB (% of before-treatment value) ([2]; Treatment 8 weeks): 90%
- LDL cholesterol ([3]; 1 month after treatment): 44 mg/dL
- LDL cholesterol (% of before-treatment value) ([3]; 1 month after treatment): 129%
- LDL cholesterol ([3]; 2 months after treatment): 41 mg/dL
- LDL cholesterol (% of before-treatment value) ([3]; 2 months after treatment): 121%
- LDL cholesterol ([3]; 3 months after treatment): 40 mg/dL
- LDL cholesterol (% of before-treatment value) ([3]; 3 months after treatment): 118%
- LDL cholesterol ([3]; Treatment 4 weeks): 37 mg/dL
- LDL cholesterol (% of before-treatment value) ([3]; Treatment 4 weeks): 109%
- LDL cholesterol ([3]; Treatment 6 weeks): 38 mg/dL
- LDL cholesterol (% of before-treatment value) ([3]; Treatment 6 weeks): 112%
- LDL cholesterol ([3]; Treatment 8 weeks): 39 mg/dL
- LDL cholesterol (% of before-treatment value) ([3]; Treatment 8 weeks): 115%
- Total cholesterol ([4]; 1 month after treatment): 197 mg/dL
- Total cholesterol (% of before-treatment value) ([4]; 1 month after treatment): 96%
- Total cholesterol ([4]; 2 months after treatment): 196 mg/dL
- Total cholesterol (% of before-treatment value) ([4]; 2 months after treatment): 96%
- Total cholesterol ([4]; 3 months after treatment): 198 mg/dL
- Total cholesterol (% of before-treatment value) ([4]; 3 months after treatment): 97%
- Total cholesterol ([4]; Treatment 4 weeks): 186 mg/dL
- Total cholesterol (% of before-treatment value) ([4]; Treatment 4 weeks): 91%
- Total cholesterol ([4]; Treatment 6 weeks): 190 mg/dL
- Total cholesterol (% of before-treatment value) ([4]; Treatment 6 weeks): 93%
- Total cholesterol ([4]; Treatment 8 weeks): 191 mg/dL
- Total cholesterol (% of before-treatment value) ([4]; Treatment 8 weeks): 93%
- cholesterol lowering effect (in words) [4]: no cholesterol lowering effect
- Triglycerides ([5]; 1 month after treatment): 106 mg/dL
- Triglycerides (% of before-treatment value) ([5]; 1 month after treatment): 91%
- Triglycerides ([5]; 2 months after treatment): 118 mg/dL
- Triglycerides (% of before-treatment value) ([5]; 2 months after treatment): 101%
- Triglycerides ([5]; 3 months after treatment): 109 mg/dL
- Triglycerides (% of before-treatment value) ([5]; 3 months after treatment): 93%
- Triglycerides ([5]; Treatment 4 weeks): 112 mg/dL
- Triglycerides (% of before-treatment value) ([5]; Treatment 4 weeks): 96%
- Triglycerides ([5]; Treatment 6 weeks): 101 mg/dL
- Triglycerides (% of before-treatment value) ([5]; Treatment 6 weeks): 86%
- Triglycerides ([5]; Treatment 8 weeks): 99 mg/dL
- Triglycerides (% of before-treatment value) ([5]; Treatment 8 weeks): 85%

From patent US20070072814A1, “Method and means of modulating lipid metabolism” (priority 2003, published 2007)
